The record followed here is publication PMC11994375, “In vitro activation of the CB1 receptor by the semi‐synthetic cannabinoids hexahydrocannabinol (HHC), hexahydrocannabinol acetate (HHC‐O) and hexahydrocannabiphorol (HHC‐P)” (Drug Testing and Analysis, 2024).

Bounds are passed on as bounds.

One assay deals with T1, human CB1 receptor (Homo sapiens, UniProt P21554).
T1 construct: gene CNR1; recombinant receptor in CHO-K1 AequoScreen cells (aequorin luminescence line, Revvity ES-110-AF)
T1 sequence (P21554 whole entry): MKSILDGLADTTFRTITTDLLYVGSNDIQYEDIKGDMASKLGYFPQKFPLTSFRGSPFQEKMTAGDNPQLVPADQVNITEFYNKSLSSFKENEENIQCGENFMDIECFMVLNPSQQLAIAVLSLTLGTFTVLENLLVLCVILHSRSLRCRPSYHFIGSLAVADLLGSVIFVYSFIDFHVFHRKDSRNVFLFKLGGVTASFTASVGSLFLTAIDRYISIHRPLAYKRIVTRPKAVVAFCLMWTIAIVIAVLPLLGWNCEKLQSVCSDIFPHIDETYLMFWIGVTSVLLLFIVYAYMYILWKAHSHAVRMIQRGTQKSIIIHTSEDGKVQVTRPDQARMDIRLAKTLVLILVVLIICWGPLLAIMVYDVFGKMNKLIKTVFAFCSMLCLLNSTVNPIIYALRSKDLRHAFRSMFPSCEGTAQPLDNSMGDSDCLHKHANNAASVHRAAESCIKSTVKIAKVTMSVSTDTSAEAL
In words: aequorin luminescence agonist assay, CHO-K1 cells. Format: cell-based. Particulars: read-out: EC50 (95% CI). The source says: aequorin luminescence agonist assay, CHO-K1 cells on human CB1 receptor
`CCCCCc1cc(OC(C)=O)c2c(c1)OC(C)(C)[C@@H]1CC[C@@H](C)C[C@@H]21` [(9R)-HHC-O]: the EC50 (in general, the concentration at which the effect is half-maximal) is above 33000 nM.

Take `CCCCCCCc1cc(O)c2c(c1)OC(C)(C)[C@@H]1CC[C@@H](C)C[C@@H]21` [(9R)-HHC-P]: the EC50 was found to be 44.4 nM.

In the case of `CCCCCc1cc(O)c2c(c1)OC(C)(C)[C@@H]1CC[C@@H](C)C[C@@H]21` [(9R)-HHC], the EC50 amounted to 101 nM.

As for `CCCCCCCc1cc(O)c2c(c1)OC(C)(C)[C@@H]1CC[C@H](C)C[C@@H]21` [(9S)-HHC-P], the half-maximal effective concentration (EC50) stood at 134 nM. Still for that read-out and setting: for `CCCCCc1cc(O)c2c(c1)OC(C)(C)[C@@H]1CC[C@H](C)C[C@@H]21` [(9S)-HHC] the value was 1190 nM.

`CCCCCn1cc(C(=O)c2cccc3ccccc23)c2ccccc21` [JWH-018, reference compound]: the EC50 was 22.5 nM.

A further assay deals with T1, human CB1 receptor. The experiment in a line: aequorin luminescence agonist assay, CHO-K1 cells. It counts as cell-based. The conditions noted are these: agonist mode, tested up to 60 uM; silanized plastic, glass vials; 0.05% BSA assay medium.
As for `CCCCCc1cc(OC(C)=O)c2c(c1)OC(C)(C)[C@@H]1CC[C@H](C)C[C@@H]21` [(9S)-HHC-O], the EC50 n.d. result is “(9S)‐HHC‐O did not activate the CB1 receptor”.
